Assay results as given in patent US20250136634A1, “CAP ANALOG AND USE THEREOF” (SHANGHAI HONGENE BIOTECH CORPORATION, priority 2021, published 2025).

Legend:
[1] = system: INFB; assay: Immunogenicity: expression of intracellular inflammatory factor INFB by qPCR in Hela cells; type: cell-based; details: 2 ug mRNA/well, 24 hours after transfection, relative to ^m7GpppApG cap, mean±SD
Description: In this example, Hela cells (ATCC CCL-2) were transfected with luciferase mRNAs (Gaussia luciferase) comprising various initial cap structures (the initial cap nucleotide structures comprised are: ^m7GpppApG, ^m7GpppA2′Ome pG, ^m7G3′OmepppA2′O-ethylpG, ^m7G2′OmepppA2′O-ethylpG, ^m7G3′OmeppA2′O-MOEpG, ^m7G2′OmepppA2′O-MOEpG, ^m7Gppp(N6-methyladenine)2′O-MOEpG, ^m7G2′OmepppC2′O-ethylpC, ^m7G3′OmepppA2′O-MOEpU), and collected after 24 hours. The expression of intracellular inflammatory factors was detected, and the relative abundance of the factors is in proportional to the immunogenicity of the mRNA.
(§1) Hela cells were seeded at a density of 4×10^5/well in 6-well plates, and transfection was carried out when the cell density reached approximately 80%. Each well was transfected with 2 ug mRNA, and the transfection reagent was Lipofectamine MessengerMAX Transfection Reagent (Invitrogen), and the transfection steps were carried out according to the instructions. Twenty-four hours after transfection, the cells were collected and TRIzol was used to extract RNAs which were then reverse transcribed into cDNAs. The expression of intracellular inflammatory factors was detected using real-time quantitative fluorescent PCR with B-actin as the internal reference. The detection of each gene was repeated 3 times, and the result of the expression of each gene is expressed as the relative value to the result of ^m7GpppApG cap.
as §1, with “The expression of intracellular inflammatory factors was detected, and the relative abundant of the factors is in proportional to the immunogenicity of the mRNA. Hela” for “Hela”, “β-actin” for “B-actin”

[2] = system: Hela cells (ATCC CCL-2); assay: Protein expression of Gaussia luciferase mRNA with various initial caps in transfected Hela cells; type: cell-based; details: 2 ug mRNA/well, 24 h after transfection, relative to ^m7GpppApG cap, mean±SD; for Relative Luciferase Unit RLU (after purification): HPLC-purified mRNA; for Relative Luciferase Unit RLU (no purification): unpurified mRNA
Description: In this example, Hela cells (ATCC CCL-2) were transfected with luciferase mRNAs (Gaussia luciferase) comprising various initial cap structures (the initial cap nucleotide structures comprised are: ^m7GpppApG, ^m7GpppA2′Ome pG, ^m7G3′OmepppA2′O-ethylpG, ^m7G2′OmepppA2′O-ethylpG, ^m7G3′OmepppA2′O-MOEpG, ^m7G2′O-mepppA2′O-MOEpG, ^m7Gppp(N6-methyladenine)2′O-MOEpG, ^m7G2′OmepppC2′O-ethylpC, ^m7G3′OmepppA2′O-MOEpU), and the signal intensity of luciferase was detected by microplate reader after 24 h. The fluorescence signal intensity was proportional to the abundance of protein expression. Hela cells were seeded at a density of 4×10^5/well in 6-well plates, and transfection was carried out when the cell density reached approximately 80%. Each well was transfected with 2 ug mRNA, and the transfection reagent was Lipofectamine MessengerMAX Transfection Reagent (Invitrogen), and the transfection steps were carried out according to the instructions. Twenty-four hours after transfection, the signal intensity of luciferase was measured on microplate reader. Measurement of luciferase fluorescence: the transfected cell culture solution was transferred to a 1.5 mL centrifuge tube and centrifuged, 10 ul of cell supernatant was taken and added to a 96-well plate, and 50 ul of 10 ng/ml substrate was added, and then the fluorescence intensity was measured on Synergy HI (BioTek) instrument. The expression of each mRNA was required to be measured 6 times and the expression results were relative values to the results of ^m7GpppApG cap.
The fluorescence signal intensity was proportional to the abundance of protein expression.
Hela cells were seeded at a density of 4×10^5/well in 6-well plates, and transfection was carried out when the cell density reached approximately 80%. Each well was transfected with 2 ug mRNA, and the transfection reagent was Lipofectamine MessengerMAX Transfection Reagent (Invitrogen), and the transfection steps were carried out according to the instructions. Twenty-four hours after transfection, the signal intensity of luciferase was measured on microplate reader. Measurement of luciferase fluorescence: the transfected cell culture solution was transferred to a 1.5 mL centrifuge tube and centrifuged, 10 ul of cell supernatant was taken and added to a 96-well plate, and 50 ul of 10 ng/ml substrate was added, and then the fluorescence intensity was measured on Synergy HI (BioTek) instrument. The expression of each mRNA was required to be measured 6 times and the expression results were relative values to the results of ^m7GpppApG cap.

[3] = molecular target: T7 RNA polymerase (Escherichia phage T7, UniProt P00573); assay: Capping efficiency of mRNA from T7 in vitro transcription, RNaseH cleavage and LC-MS (Example 2); type: biochemical; details: Example 2, T7 RNA polymerase IVT at 37° C. for 2 hs
From the text: (5) Treatment with Antarctic Phosphatase:

[4] = Example 3 (IVT at 50° C.), β-actin reference

Sequence of T7 RNA polymerase (P00573 whole entry): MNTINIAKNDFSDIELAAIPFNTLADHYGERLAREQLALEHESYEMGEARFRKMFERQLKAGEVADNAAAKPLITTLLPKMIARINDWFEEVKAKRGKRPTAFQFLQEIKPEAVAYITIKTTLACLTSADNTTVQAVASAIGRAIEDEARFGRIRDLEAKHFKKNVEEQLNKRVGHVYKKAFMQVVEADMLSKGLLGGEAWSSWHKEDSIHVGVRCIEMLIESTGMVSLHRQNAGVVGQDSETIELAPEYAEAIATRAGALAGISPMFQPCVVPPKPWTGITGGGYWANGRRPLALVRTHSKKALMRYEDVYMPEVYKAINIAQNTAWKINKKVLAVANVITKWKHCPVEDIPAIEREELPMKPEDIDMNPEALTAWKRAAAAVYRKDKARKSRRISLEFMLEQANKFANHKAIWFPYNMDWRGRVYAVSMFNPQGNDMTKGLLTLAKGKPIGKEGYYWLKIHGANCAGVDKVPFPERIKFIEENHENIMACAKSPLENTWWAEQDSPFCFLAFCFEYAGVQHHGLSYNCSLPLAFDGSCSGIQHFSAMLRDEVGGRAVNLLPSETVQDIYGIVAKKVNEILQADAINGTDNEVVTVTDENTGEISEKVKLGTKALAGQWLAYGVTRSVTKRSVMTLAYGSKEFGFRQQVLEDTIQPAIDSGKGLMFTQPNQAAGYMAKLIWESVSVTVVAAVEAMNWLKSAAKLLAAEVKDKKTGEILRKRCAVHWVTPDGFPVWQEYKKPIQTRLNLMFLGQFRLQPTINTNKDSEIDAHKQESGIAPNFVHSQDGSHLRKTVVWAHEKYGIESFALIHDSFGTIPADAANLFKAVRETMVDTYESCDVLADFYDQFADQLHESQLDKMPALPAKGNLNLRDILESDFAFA

Substance	Expression of INFB [1, 4]	Relative Luciferase Unit RLU (after purification) ([2]; Example 3 (IVT at 50° C.))	Relative Luciferase Unit RLU (no purification) ([2]; Example 3 (IVT at 50° C.))	Expression of INFB ([1]; Example 2, B-actin reference)	Relative Luciferase Unit RLU (after purification) ([2]; Example 2)	Relative Luciferase Unit RLU (no purification) ([2]; Example 2)	Capping efficiency [3] [%]
^m7GBeta-D-LNApppA2′O-MOEpG	0.09 ± 0.02	3.45 ± 0.01	3 ± 0.12	–	–	–	–
^m7GAlpha-L-LNApppA2′O-ethyl pG	0.11 ± 0.03	2.97 ± 0.09	2.67 ± 0.02	–	–	–	–
^m7G2′OmepppC2′O-ethylpC	–	–	–	0.78 ± 0.01	1.71 ± 0.18	1.33 ± 0.06	92
^m7Gppp(N6-methyladenine)2′O-MOEpG	–	–	–	0.46 ± 0.02	3.23 ± 0.07	2.98 ± 0.02	84
^m7G2′OmepppA2′O-ethylpG	–	–	–	0.42 ± 0.02	3.34 ± 0.01	2.83 ± 0.11	92
^m7G3′OmepppA2′O-MOEpG	–	–	–	0.41 ± 0.01	4.18 ± 0.16	3.3 ± 0.13	89
^m7G3′OmepppA2′O-MOEpU	–	–	–	1.18 ± 0.08	1.76 ± 0.12	1.32 ± 0.06	93
^m7GpppApG [reference compound]	1 ± 0.13	1 ± 0.12	1 ± 0.02	1 ± 0.08	1 ± 0.19	1 ± 0.02	98
^m7G3′OmepppA2′O-ethylpG	–	–	–	0.47 ± 0.01	2.73 ± 0.03	2.63 ± 0.15	94
^m7GpppA2′Ome pG [reference compound]	0.63 ± 0.04	1.56 ± 0.11	1.25 ± 0.11	0.61 ± 0.01	3.3 ± 0.13	2.94 ± 0.02	97
^m7G2′OmepppA2′O-MOEpG	–	–	–	0.24 ± 0.03	5.11 ± 0.17	4.47 ± 0.07	88
